The values below are quoted from earlier work in EP4772943A1, “ALKALINE AQUEOUS SOLUTION FOR SEMICONDUCTOR, METHOD FOR USE AS LOW-TOXICITY ALKALINE AQUEOUS SOLUTION FOR SEMICONDUCTOR, AND METHOD FOR PRODUCING ALKALINE AQUEOUS SOLUTION FOR SEMICONDUCTOR” (priority 2023, dated 2025).

The series has as its system Daphnia sp. The note with it: OECD TG202 Daphnia sp. acute immobilization test; converted to hydroxide of the quaternary ammonium ion as 100 mass%.

As for `C[N+](C)(C)C.[OH-]` [TMAH, Tetramethylammonium hydroxide], the EC50 value is 3 µg/mL.
